Reference: US6713057B1, “Compositions and methods for modulating serum cholesterol” (The Johns Hopkins University, priority 1999, dated 2004)

What was measured:
SREBP-1 [1] = assay: SREBP-1 proteolysis (maturation) assay, Western immunoblot of nuclear fractions, HH-25 hepatocytes; assay type: cell-based, human; details: for induction of SREBP-1 maturation (increase in mature SREBP-1), in words: HH-25 hepatocytes, sterol independent
Protocol: FIGS. 2A-2C illustrate effects of TNF-α sphingomyelinase and C2-ceramide on the kinetics of SREBP-1 maturation—FIGS. 2A-2C is explained in more detail as follows: Cells were maintained in media supplemented with 1 μg/ml 25-hydroxy cholesterol and 15 μg/ml cholesterol for 24 hours before the experiment. The cells were treated for the indicated time as described in materials and methods. The cells were then harvested in PBS, pelleted and frozen. Lysis and nuclear fractionation were performed as described. Nuclear fractions (50 μg of protein) were electrophoresed on a 7.5% polyacrylamide gel and transferred to a PVDF membrane. Western blotting was performed as described. Band intensity was quantified via densitometry. Error bars represent ±one standard deviation from the mean. 2A) The kinetics of SREBP maturation as measured by the increase in mature SREBP-1 are plotted. Fold increase was calculated by comparing each time point to the corresponding control value (TNF-α is represented by stippled bars, bacterial sphingomyelinase is represented by light gray bars and C2-ceramide by the dark bars.) 2B) Cells were treated with TNF-α (10 ng/ml) and prepared as described above. The bands corresponding to the precursor and mature forms of SREBP-1 were quantified and their ratio plotted. 2C) Representative Western blots from which numerical data was derived. Incubation time is indicated above and applies to all conditions. The membranes were exposed to film for 15 seconds. P and M denote the precursor and mature forms of SREBP-1 respectively.
FIGS. 3A-3C show effects of TNF-α, sphingomyelinase and C2-ceramide concentration on SREBP-1 maturation—The FIGS. 3A-3C are explained in more detail as follows. […] Nuclear pellets were prepared and electrophoresed (50 μg of protein). The bands corresponding to the precursor and mature forms of SREBP-1 were quantified. The precursor to mature ratios were normalized to a single control to facilitate comparison. The control ratio was arbitrarily assigned a value of 1. A Unit of sphingomyelinase activity hydrolyzes 1.0 μmol of sphingomyelin per minute at 37° C. FIG. 3A (ng/ml TNF-α); FIG. 3B (mUnits of sphingomyelinase); FIG. 3C (micromolar C2-ceramide).
HH-25 cells were grown in alpha-minimal essential media supplemented with 100 units/ml penicillin, 100 µg/ml streptomycin, […], 0.1 μM selenium, 5.5 μg/ml transferrin, 0.5 μg/ml linoleic acid and 10% fetal bovine serum (media A). The cells were incubated in serum free F10 media for 30 to 60 minutes prior to initiating treatment with TNF-α, C2-ceramide or sphingomyelinase.
Following treatment, the cells were washed with 5 ml of PBS and pelleted at 1500×g for 10 minutes at 4° C. The pellet was stored at −70° C. and lysed in 0.5 ml buffer A (10 mM HEPES pH 7.4, 5 mM EDTA, 0.25 mM EGTA, 50 mM NaF, 7 mM β-mercaptoethanol, 0.35M sucrose, 0.1% NP-40 and protease inhibitors 1 mM PMSF, 2 μg/ml aprotinin, 10 μg/ml leupeptin and 5 μg/ml pepstatin). The lysate was centrifuged at 12,000×g for 15 minutes at 4° C. to prepare a nuclear fraction. The protein concentration of these samples was determined by the method of Lowry et al. al. (19).
50 μg of nuclear protein was separated by gel electrophoresis on a 7.5% polyacrylamide gel. Gels were calibrated by high range molecular weight markers (Bio-Rad product #161-0303, New York, N.Y.) which were transferred to a polyvinyl difluoride (PVDF) membrane and visualized with coomassie staining. Rabbit polyclonal antibodies against SREBP-1 were used at 0.5 μg/ml according to the instructions of the manufacturer. The antibody was visualized with horseradish peroxidase conjugated anti-rabbit IgG made in donkey (Amersham) using the Enhanced Chemiluminescence (ECL) Western Blotting Detection System Kit (Amersham). PVDF membranes were exposed to Hyperfilm ECL (Amersham) for the indicated time. Immunoblots were quantified via densitometry performed on a PDI densitometer scanner (model 20J7) coupled to a SPARC IRC workstation.

SREBP-1 [2] = assay: Indirect immunofluorescence of SREBP-1 subcellular localization; assay type: cell-based, human; details: 30 minutes after initiating treatment; TNF-α 10 ng/ml, sphingomyelinase 100 mUnits, C2-ceramide 10 μM
Protocol: FIGS. 5A-5D show indirect immunofluorescence of SREBP-1. FIGS. 5A-5D are discussed in more detail as follows. SREBP-1 was visualized with rabbit polyclonal antibodies directed towards the N-terminal DNA binding domain which is common to both the precursor and mature forms. Cells were maintained in media supplemented with 1 μg/ml 25-hydroxycholesterol and 15 μg/ml cholesterol for 24 hours before the experiment. Immunofluorescence was performed as described. All magnifications are 40× and all photographs were taken of samples that were fixed 30 minutes after initiating treatment. FIG. 5A) Control cells, FIG. 5B) Cells treated with TNF-α (10 ng/ml), FIG. 5C) Cells treated with sphingomyelinase (100 mUnits), FIG. 5D) Cells treated with C2-ceramide (10 μM).
Cultured HH-25 cells were grown on coverslips and treated as described. After treatment, the cells were washed 3×5 minutes with PBS containing 1 mM MgCl2 and 0.1 mM CaCl2 (solution A). The cells were fixed with 3% paraformaldehyde in solution A for 10 minutes and permeabilized with 0.5% Triton X-100 in solution A for 6 minutes at room temperature. The coverslips were then washed 3×5 minutes with solution A.
Primary antibody (anti-SREBP1) was used at a dilution of […] in PBS and applied for 1 hour with gentle shaking. The cells were washed as above and a FITC conjugated anti-rabbit IgG secondary antibody, was applied for ½ hour according to the instructions of the manufacturer. The coverslips were washed, mounted on microscope slides and were viewed and photographed at the indicated magnification on a Zeiss Axiovert 25 fluorescence microscope.

SREBP-1 [3] = assay: Electrophoretic mobility shift assay, SREBP-1 binding to SRE probe; assay type: cell-based, human; details: TNF-α 10 ng/ml, sphingomyelinase 100 mUnits, C2-ceramide 10 μM
Protocol: FIGS. 6A-6D show electrophoretic mobility shift assays. FIGS. 6A-D are explained in more detail as follows. Cells were maintained in sterol supplemented media. Nuclear pellets were prepared and assayed as described in materials and methods. Probe that has been bound by mature SREBP-1 is indicated as “Bound”. Unbound probe is indicated as “Free”. The kinetics (in minutes) of SREBP-1 binding to the probe in response to treatment with (FIG. 6A). TNF-α (10 ng/ml), (FIG. 6B) sphingomyelinase (100 mUnits) and (FIG. 6C) C2-ceramide ([…]). (FIG. 6D). The cells were treated with either TNF-α (10 ng/ml), sphingomyelinase (100 mUnits) or C2-ceramide (10 μM) for 15 minutes. Supershift assays were then performed with antibodies raised against the DNA binding domain of SREBP-1. The presence or absence of antibody is indicated by (+) and (−) respectively. Pre-immune IgG was used as a control.
Gel mobility shift assays were performed as follows. Each 20 μl reaction mixture contained 8-10 μg of nuclear protein plus a α-[^32P]-labeled 25-base pair oligonucleotide probe containing the SREBP-binding site (14) in binding buffer (10 mM Hepes, pH 7.5, 0.5 mM spermidine, 0.15 mM EDTA, 10 mM dithiothreitol, 0.35 mM sucrose). The reaction mixture was incubated at room temperature for 15 min and loaded directly onto a 6.5% polyacrylamide (49:0.6 acrylamide/bisacrylamide) gel in a buffer of 25 mM Tris borate (pH 8.0), 0.25 mM EDTA. In some experiments, antisera specific for SREBP or preimmune sera were added to reaction mixtures to determine the composition of protein-probe complexes. For these “supershift” assays, extracts were incubated with 1 μl of preimmune sera or an equal volume of anti-SREBP antisera at 4° C. for 30 min prior to addition of α-[^32P]-labeled probe. In all experiments, proteins were separated by electrophoresis at 200 V for 2 h at room temperature. Gels were dried and exposed to Kodak XAR film with intensifying screens. Assays were repeated with nuclear extracts obtained from three unique experiments and evaluated by phosphoimage analysis to ensure reproducibility of results.

Protocol for HH-25 cells: Cells were treated with either TNF-α, sphingomyelinase or C2-ceramide for 1 hour at concentrations identical to those used in the SREBP-1 maturation studies. The cells were then washed twice with minimal essential medium and refed with media A for 6 hours. […] Genomic DNA was electrophoresed and stained with ethidium bromide.

With PDGF the “induction of SREBP-1 maturation (increase in mature SREBP-1), in words” value (SREBP-1 [1]) was “could not be recapitulated”.
In the case of CCCCCCCCCCCCCCC[C@@H](O)[C@H](CO)NC(C)=O [C2-dihydroceramide, reference compound], the “induction of SREBP-1 maturation (increase in mature SREBP-1), in words” value (SREBP-1 [1]) is reported as “could not be induced”.
Sphingomyelinase was tested, and the “subcellular localization of SREBP-1 (staining pattern)” value (SREBP-1 [2]) was “intense nuclear staining and little extra-nuclear staining”, the “decrease in the precursor to mature ratio” value (SREBP-1 [1]; 250 milliunits of sphingomyelinase activity) was 80% and the “increase in mass of the mature form of SREBP-1” value (SREBP-1 [1]; after 15 minutes of treatment, sterol supplemented media) was 2.5 fold. For the same molecule, the “persistence of the increase in mature SREBP-1” value (SREBP-1 [1]; after 60 minutes) was “persisted after 60 minutes”, the “amount of probe bound (electrophoretically retarded) by mature SREBP-1” value (SREBP-1 [3]) was “increases” and the “induction of apoptosis (160 bp DNA ladder)” value (HH-25 cells) was “did not induce apoptosis”.
